Here are results for 22 molecules from patent US10227323B2, “Glucosylceramide synthase inhibitors for the treatment of diseases” (BIOMARIN PHARMACEUTICAL INC., priority 2013, dated 2019).

This assay concerns the target T1, GCS (Canis lupus familiaris, UniProt A0A8I3MXG6).
T1 sequence (A0A8I3MXG6 1-394): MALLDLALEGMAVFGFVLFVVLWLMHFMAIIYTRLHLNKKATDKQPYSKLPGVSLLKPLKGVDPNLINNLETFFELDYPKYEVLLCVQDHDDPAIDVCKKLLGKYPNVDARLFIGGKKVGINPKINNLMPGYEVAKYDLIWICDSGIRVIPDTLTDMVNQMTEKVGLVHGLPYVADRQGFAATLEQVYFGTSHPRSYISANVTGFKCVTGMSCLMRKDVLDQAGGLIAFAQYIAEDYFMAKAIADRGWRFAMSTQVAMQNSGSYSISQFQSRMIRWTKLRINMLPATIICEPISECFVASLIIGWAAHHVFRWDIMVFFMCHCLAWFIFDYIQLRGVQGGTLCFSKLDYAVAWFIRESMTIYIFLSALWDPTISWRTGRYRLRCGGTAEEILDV
The experiment in a line: Assay 1: GCS Enzymatic Assay (MDCK cell lysate, C6-NBD-Ceramide, LC/MS). The class given is biochemical, canine. The conditions noted are these: Table 2; for % inhibition generated from Assay 1: data marked by *; for IC50: data without asterisk, read-out: IC50 (nM) generated from Assay 1. The gist of the method: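 LC/MS/MS measurement of glucosylceramide and NBD-ceramide after a 1 h, 37 °C reaction with 100 μM UDP-glucose and 10 μM C6-NBD-ceramide gave IC50s or percent inhibition.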

Bounds are passed on as bounds.

For `O=C(N[C@H](CN1CCC1)[C@H](O)c1ccc(OC2CC2)c(Cl)c1)C(F)(F)c1ccc(-c2ccc(F)cc2)cc1` [Compound 162, N-((1R,2R)-3-(azetidin-1-yl)-1-(3-chloro-4-cyclopropoxyphenyl)-1-hydroxypropan-2-yl)-2,2-difluoro-2-(4′-fluoro-[1,1′-biphenyl]-4-yl)acetamide], the “% inhibition generated from Assay 1” value is given as “A* (the compound had a % inhibition of a percent inhibition of greater than or equal to about 50%)”. Consider `O=C(N[C@H](CN1CCCC1)[C@H](O)c1ccc(OC2CCOCC2)c(Cl)c1)C(F)(F)c1ccc(-c2ccc(F)cc2)cc1` [Compound 163, N-((1R,2R)-1-(3-chloro-4-((tetrahydro-2H-pyran-4-yl)oxy)phenyl)-1-hydroxy-3-(pyrrolidin-1-yl)propan-2-yl)-2,2-difluoro-2-(4′-fluoro-[1,1′-biphenyl]-4-yl)acetamide], for which the IC50 is below 50 nM. Regarding `O=C(N[C@H](CN1CCC1)[C@H](O)c1ccc(OC2CC2)c(Cl)c1)/C(CCc1ccc2ccccc2c1)=N/O` [Compound 164, (E)-N-((1R,2R)-3-(azetidin-1-yl)-1-(3-chloro-4-cyclopropoxyphenyl)-1-hydroxypropan-2-yl)-2-(hydroxyimino)-4-(naphthalen-2-yl)butanamide], the “% inhibition generated from Assay 1” value was “A* (the compound had a % inhibition of a percent inhibition of greater than or equal to about 50%)”. For `O=C(N[C@H](CN1CCCC1)[C@H](O)c1ccc2c(c1)OCCO2)C(F)(F)CCc1ccc2c(c1)CCCC2` [Compound 165, N-((1R,2R)-1-(2,3-dihydrobenzo[b][1,4]dioxin-6-yl)-1-hydroxy-3-(pyrrolidin-1-yl)propan-2-yl)-2,2-difluoro-4-(5,6,7,8-tetrahydronaphthalen-2-yl)butanamide], the IC50 was below 50 nM. As for `O=C(N[C@H](CN1CCCC1)[C@H](O)c1ccc(OC2CC2)c(Cl)c1)C(F)(F)CCc1ccc2c(c1)CCCC2` [Compound 166, N-((1R,2R)-1-(3-chloro-4-cyclopropoxyphenyl)-1-hydroxy-3-(pyrrolidin-1-yl)propan-2-yl)-2,2-difluoro-4-(5,6,7,8-tetrahydronaphthalen-2-yl)butanamide], the IC50 is below 50 nM. `O=C(N[C@H](CN1CCCC1)[C@H](O)c1cc(F)c2c(c1)OCCO2)C(F)(F)CCc1ccc2c(c1)CCCC2` [Compound 167, 2,2-difluoro-N-((1R,2R)-1-(8-fluoro-2,3-dihydrobenzo[b][1,4]dioxin-6-yl)-1-hydroxy-3-(pyrrolidin-1-yl)propan-2-yl)-4-(5,6,7,8-tetrahydronaphthalen-2-yl)butanamide]: the IC50 was below 50 nM. For `CC(C)(O)COc1ccc([C@H](O)[C@@H](CN2CCCC2)NC(=O)C(F)(F)c2cc3cc(Cl)ccc3o2)cc1Cl` [Compound 168, N-((1S,2R)-1-(3-chloro-4-(2-hydroxy-2-methylpropoxy)phenyl)-1-hydroxy-3-(pyrrolidin-1-yl)propan-2-yl)-2-(5-chlorobenzofuran-2-yl)-2,2-difluoroacetamide], the “% inhibition generated from Assay 1” value is on record as “B* (the compound had a % inhibition of greater than or equal to about 3% but less than about 50%)”. Still for that read-out and setting: to `O=C(N[C@H](CN1CCC1)[C@H](O)c1ccc(OC2CC2)c(Cl)c1)/C(=N/O)c1cc2cc(Cl)ccc2o1` [Compound 169, (E)-N-((1R,2R)-3-(azetidin-1-yl)-1-(3-chloro-4-cyclopropoxyphenyl)-1-hydroxypropan-2-yl)-2-(5-chlorobenzofuran-2-yl)-2-(hydroxyimino)acetamide] belongs “A* (the compound had a % inhibition of a percent inhibition of greater than or equal to about 50%)”; to `O=C(CCc1ccc2ccccc2c1)C(=O)N[C@H](CN1CCC1)[C@H](O)c1ccc(OC2CC2)c(Cl)c1` [Compound 170, N-((1R,2R)-3-(azetidin-1-yl)-1-(3-chloro-4-cyclopropoxyphenyl)-1-hydroxypropan-2-yl)-4-(naphthalen-2-yl)-2-oxobutanamide], “B* (the compound had a % inhibition of greater than or equal to about 3% but less than about 50%)”.

Consider `O=C(N[C@H](CN1CCC1)[C@H](O)c1ccc(OC2CC2)c(Cl)c1)C(F)(F)CCc1ccc2ccccc2c1` [Compound 171, N-((1R,2R)-3-(azetidin-1-yl)-1-(3-chloro-4-cyclopropoxyphenyl)-1-hydroxypropan-2-yl)-2,2-difluoro-4-(naphthalen-2-yl)butanamide], for which the IC50 is below 50 nM. `O=C(N[C@H](CN1CCCC1)[C@H](O)c1ccc(OC2CC2)c(Cl)c1)C(=O)c1ccc2cc(Cl)ccc2c1` [Compound 172, N-((1R,2R)-1-(3-chloro-4-cyclopropoxyphenyl)-1-hydroxy-3-(pyrrolidin-1-yl)propan-2-yl)-2-(6-chloronaphthalen-2-yl)-2-oxoacetamide]: the 50% inhibitory concentration (IC50) was below 50 nM. Still for that read-out and setting: the figure for `O=C(N[C@H](CN1CCCC1)[C@H](O)c1ccc(OC2CC2)c(Cl)c1)/C(=N/O)c1ccc2cc(Cl)ccc2c1` [Compound 173, (E)-N-((1R,2R)-1-(3-chloro-4-cyclopropoxyphenyl)-1-hydroxy-3-(pyrrolidin-1-yl)propan-2-yl)-2-(6-chloronaphthalen-2-yl)-2-(hydroxyimino)acetamide] is below 50 nM; for `O=C(N[C@H](CN1CCCC1)[C@H](O)c1ccc2c(c1)OCCO2)C(=O)c1ccc(-c2ccc(F)cc2)s1` [Compound 174, N-((1R,2R)-1-(2,3-dihydrobenzo[b][1,4]dioxin-6-yl)-1-hydroxy-3-(pyrrolidin-1-yl)propan-2-yl)-2-(5-(4-fluorophenyl)thiophen-2-yl)-2-oxoacetamide] it is below 50 nM; for `O=C(N[C@H](CN1CCCC1)[C@H](O)c1ccc(OC2CC2)c(Cl)c1)C(=O)c1ccc(-c2ccc(F)cn2)cc1` [Compound 175] it is below 50 nM. As for `O=C(N[C@H](CN1CCCC1)[C@H](O)c1cc(F)c2c(c1)OCCO2)C(=O)c1ccc(-c2ccc(F)cn2)cc1` [Compound 176, N-((1R,2R)-1-(8-fluoro-2,3-dihydrobenzo[b][1,4]dioxin-6-yl)-1-hydroxy-3-(pyrrolidin-1-yl)propan-2-yl)-2-(4-(5-fluoropyridin-2-yl)phenyl)-2-oxoacetamide], the IC50 was below 50 nM. In the case of `O=C(N[C@H](CN1CCCC1)[C@H](O)c1ccc(OC2CCOCC2)c(Cl)c1)/C(=N/O)c1ccc(-c2ccc(F)cc2)cc1` [Compound 177, (E)-N-((1R,2R)-1-(3-chloro-4-((tetrahydro-2H-pyran-4-yl)oxy)phenyl)-1-hydroxy-3-(pyrrolidin-1-yl)propan-2-yl)-2-(4′-fluoro-[1,1′-biphenyl]-4-yl)-2-(hydroxyimino)acetamide], the IC50 is below 50 nM. With `O=C(N[C@H](CN1CCCC1)[C@H](O)c1ccc(OC2CC2)c(Cl)c1)C(F)(F)c1ccc(-c2ccc(F)cn2)cc1` [Compound 178, N-((1R,2R)-1-(3-chloro-4-cyclopropoxyphenyl)-1-hydroxy-3-(pyrrolidin-1-yl)propan-2-yl)-2,2-difluoro-2-(4-(5-fluoropyridin-2-yl)phenyl)acetamide], the “% inhibition generated from Assay 1” value is “A* (the compound had a % inhibition of a percent inhibition of greater than or equal to about 50%)”. `O=C(N[C@H](CN1CCCC1)[C@H](O)c1ccc2c(c1)OCCO2)C(F)(F)c1ccc(-c2ccc(F)cn2)cc1` [Compound 179, N-((1R,2R)-1-(2,3-dihydrobenzo[b][1,4]dioxin-6-yl)-1-hydroxy-3-(pyrrolidin-1-yl)propan-2-yl)-2,2-difluoro-2-(4-(5-fluoropyridin-2-yl)phenyl)acetamide]: the “% inhibition generated from Assay 1” value is recorded as “A* (the compound had a % inhibition of a percent inhibition of greater than or equal to about 50%)”. Consider `O=C(N[C@H](CN1CCCC1)[C@H](O)c1ccc2c(c1)OCCO2)C(F)(F)c1ccc(-c2ccc(F)cc2)s1` [Compound 180, N-((1R,2R)-1-(2,3-dihydrobenzo[b][1,4]dioxin-6-yl)-1-hydroxy-3-(pyrrolidin-1-yl)propan-2-yl)-2,2-difluoro-2-(5-(4-fluorophenyl)thiophen-2-yl)acetamide], for which the “% inhibition generated from Assay 1” value was “A* (the compound had a % inhibition of a percent inhibition of greater than or equal to about 50%)”.

Regarding `O=C(N[C@H](CN1CCCC1)[C@H](O)c1ccc2c(c1)OCCO2)/C(=N/O)c1ccc(-c2ccc(F)cc2)s1` [Compound 181, (Z)-N-((1R,2R)-1-(2,3-dihydrobenzo[b][1,4]dioxin-6-yl)-1-hydroxy-3-(pyrrolidin-1-yl)propan-2-yl)-2-(5-(4-fluorophenyl)thiophen-2-yl)-2-(hydroxyimino)acetamide], the IC50 is below 50 nM. On the same count and under the same terms, to `O=C(N[C@H](CN1CCCC1)[C@H](O)c1ccc(OC2CC2)c(Cl)c1)C(F)(F)c1ccc(-c2ccccn2)cc1` [Compound 182, N-((1R,2R)-1-(3-chloro-4-cyclopropoxyphenyl)-1-hydroxy-3-(pyrrolidin-1-yl)propan-2-yl)-2,2-difluoro-2-(4-(pyridin-2-yl)phenyl)acetamide] belongs below 50 nM; to `O=C(N[C@H](CN1CCCC1)[C@H](O)c1cc(F)c2c(c1)OCCO2)C(F)(F)c1ccc(-c2ccc(F)cn2)cc1` [Compound 183, 2,2-difluoro-N-((1R,2R)-1-(8-fluoro-2,3-dihydrobenzo[b][1,4]dioxin-6-yl)-1-hydroxy-3-(pyrrolidin-1-yl)propan-2-yl)-2-(4-(5-fluoropyridin-2-yl)phenyl)acetamide], below 50 nM.
